Assay results taken from ChEMBL document CHEMBL1201862, “PubChem BioAssay data set” (2004).
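Step 1: Grow cells in 96-well plates. Step 2: Expose to compound for 48 hours at 5 concentrations. Step 3: Interpolate endpoints linearly; if unreached, use highest concentration. At the GI50, growth is halved.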 Calls of active or inactive are those of the source. No stated cut-off is given here; in the data, active = GI50 up to about 1.1 µM and inactive = higher.

Assays:
Assay in all cases: growth of human tumour cells (NCI), 48 h
A498 = system: A498
BT-549 = system: BT-549
CAKI-1 = system: CAKI-1
CCRF-CEM = system: CCRF-CEM
HOP-92 = system: HOP-92
HT-29 = system: HT-29
KM12 = system: KM12
MDA-MB-231 = system: MDA-MB-231
MDA-MB-435 = system: MDA-MB-435
MDA-N = system: MDA-N
PC-3 = system: PC-3
SK-MEL-28 = system: SK-MEL-28
SN12C = system: SN12C
SNB-19 = system: SNB-19
T47D = system: T47D
TK-10 = system: TK-10
UO-31 = system: UO-31
MCF7 = system: MCF7
SK-OV-3 = system: SK-OV-3
SNB-75 = system: SNB-75

SMILES | GI50 (A498) | GI50 (BT-549) | GI50 (CAKI-1) | GI50 (CCRF-CEM) | GI50 (HOP-92) | GI50 (HT-29) | GI50 (KM12) | GI50 (MDA-MB-231) | GI50 (MDA-MB-435) | GI50 (MDA-N) | GI50 (PC-3) | GI50 (SK-MEL-28) | GI50 (SN12C) | GI50 (SNB-19) | GI50 (T47D) | GI50 (TK-10) | GI50 (UO-31) | GI50 (MCF7) | GI50 (SK-OV-3) | GI50 (SNB-75)
Cc1cnc2cc(Cl)ccc2c1SCC(=O)O | > 100 µM (inactive) | > 100 µM (inactive) | > 100 µM (inactive) | > 100 µM (inactive) | > 100 µM (inactive) | > 100 µM (inactive) | > 100 µM (inactive) | > 100 µM (inactive) | > 100 µM (inactive) | > 100 µM (inactive) | > 100 µM (inactive) | > 100 µM (inactive) | > 100 µM (inactive) | > 100 µM (inactive) | > 100 µM (inactive) | > 100 µM (inactive) | > 100 µM (inactive) |  |  | 
COc1cccc(C2CC(=O)c3cc(N4CCCC4)ccc3N2)c1 (stereo not given) |  | 0.0843 µM (active) | 0.0561 µM (active) | 0.0407 µM (active) | 0.348 µM (active) | 0.0211 µM (active) | 0.0861 µM (active) | 0.0766 µM (active) | 0.00794 µM (active) | 0.00269 µM (active) | 0.022 µM (active) |  | 0.0418 µM (active) | 0.0296 µM (active) | 56 µM (inactive) | 1.21 µM (inactive) | 0.0735 µM (active) | 0.398 µM (active) | 0.043 µM (active) | 
N=c1oc2cc(O)ccc2cc1C(=O)NCc1ccccc1 |  | 17.3 µM (inactive) | 20.3 µM (inactive) | 9.42 µM (inactive) |  | 18.8 µM (inactive) | 32.3 µM (inactive) | 24 µM (inactive) | 17.7 µM (inactive) | 19.3 µM (inactive) | 28.4 µM (inactive) | 27.6 µM (inactive) | 19.5 µM (inactive) | 23.7 µM (inactive) | 8.61 µM (inactive) | 32.1 µM (inactive) | 25.6 µM (inactive) | 33.2 µM (inactive) | 16.2 µM (inactive) | 8.85 µM (inactive)
CCc1nc2ccc(C(F)(F)F)cc2[nH]c1=O | 94.4 µM (inactive) | > 100 µM (inactive) | 80.7 µM (inactive) | > 100 µM (inactive) | > 100 µM (inactive) | > 100 µM (inactive) | > 100 µM (inactive) | 50.6 µM (inactive) | > 100 µM (inactive) | > 100 µM (inactive) | > 100 µM (inactive) | > 100 µM (inactive) | > 100 µM (inactive) | > 100 µM (inactive) |  | > 100 µM (inactive) | 61.7 µM (inactive) | > 100 µM (inactive) | > 100 µM (inactive) | 89.5 µM (inactive)
CC1(C)CC2C(/C1=N/O)C1(C)CCCC2(C)C1O (stereo not given) |  | > 100 µM (inactive) | > 100 µM (inactive) | > 100 µM (inactive) | > 100 µM (inactive) | > 100 µM (inactive) | > 100 µM (inactive) |  | > 100 µM (inactive) | > 100 µM (inactive) | > 100 µM (inactive) | > 100 µM (inactive) | > 100 µM (inactive) | > 100 µM (inactive) | > 100 µM (inactive) | > 100 µM (inactive) | > 100 µM (inactive) | > 100 µM (inactive) | > 100 µM (inactive) | > 100 µM (inactive)
O=[N+]([O-])/C(C(Cl)=C(Cl)Cl)=C(\Nc1cccc2cccnc12)Sc1ccccc1 | 20 µM (inactive) | 21.9 µM (inactive) | 22 µM (inactive) | 27.7 µM (inactive) |  | 23.4 µM (inactive) | 12.6 µM (inactive) | 18.2 µM (inactive) | 18.7 µM (inactive) | 43 µM (inactive) | 18.8 µM (inactive) | 20.4 µM (inactive) | 22.2 µM (inactive) | 31.6 µM (inactive) | 18.3 µM (inactive) |  | 18.9 µM (inactive) | 20.8 µM (inactive) | 34.2 µM (inactive) | 23.7 µM (inactive)
Clc1nc(Nc2nc3ccccc3[nH]2)nc(Cl)c1Cc1ccccc1 | > 100 µM (inactive) | > 100 µM (inactive) | > 100 µM (inactive) | 63.5 µM (inactive) | 23 µM (inactive) | 54.1 µM (inactive) | 81.7 µM (inactive) | 30.7 µM (inactive) | > 100 µM (inactive) | 66.4 µM (inactive) | > 100 µM (inactive) | > 100 µM (inactive) | 59.4 µM (inactive) | 93.1 µM (inactive) | 89.3 µM (inactive) | > 100 µM (inactive) | > 100 µM (inactive) |  | > 100 µM (inactive) | 17.9 µM (inactive)
CC(=O)N(C(C)=O)n1c(-c2ccccc2)n[nH]c1=O |  | > 100 µM (inactive) |  | > 100 µM (inactive) | > 100 µM (inactive) | > 100 µM (inactive) | > 100 µM (inactive) | > 100 µM (inactive) | > 100 µM (inactive) | > 100 µM (inactive) | > 100 µM (inactive) | > 100 µM (inactive) | > 100 µM (inactive) | > 100 µM (inactive) |  | > 100 µM (inactive) | > 100 µM (inactive) | > 100 µM (inactive) | > 100 µM (inactive) | > 100 µM (inactive)
COCCNC1CCC(=O)c2[nH]c3ccccc3c21 (stereo not given) | > 100 µM (inactive) | > 100 µM (inactive) | > 100 µM (inactive) | > 100 µM (inactive) | > 100 µM (inactive) | > 100 µM (inactive) | > 100 µM (inactive) | > 100 µM (inactive) | > 100 µM (inactive) | > 100 µM (inactive) | > 100 µM (inactive) | > 100 µM (inactive) | > 100 µM (inactive) | > 100 µM (inactive) |  | > 100 µM (inactive) | 65.8 µM (inactive) | > 100 µM (inactive) |  | > 100 µM (inactive)
CNC(=O)N(CCC#N)CCN(CCN(C(=O)NC)c1ccccc1)C(=O)NC |  | > 100 µM (inactive) | > 100 µM (inactive) | > 100 µM (inactive) | > 100 µM (inactive) | > 100 µM (inactive) | > 100 µM (inactive) | > 100 µM (inactive) | > 100 µM (inactive) | > 100 µM (inactive) | > 100 µM (inactive) | > 100 µM (inactive) | > 100 µM (inactive) | > 100 µM (inactive) | > 100 µM (inactive) | > 100 µM (inactive) | > 100 µM (inactive) | > 100 µM (inactive) | > 100 µM (inactive) | > 100 µM (inactive)
Cc1c(Cc2ccccc2)n(C(C)OCCN(OC(=O)Oc2ccccc2)C(=O)Oc2ccccc2)c(=O)[nH]c1=O (stereo not given) |  | 17.1 µM (inactive) | 18.7 µM (inactive) | 12.4 µM (inactive) | 13.5 µM (inactive) | 16.1 µM (inactive) | 15.8 µM (inactive) | 19.5 µM (inactive) | 23.4 µM (inactive) | 19.3 µM (inactive) | 21.9 µM (inactive) | 21.3 µM (inactive) | 19.8 µM (inactive) | 25.1 µM (inactive) |  |  | 14.5 µM (inactive) | 23.4 µM (inactive) | 17.4 µM (inactive) | 1.61 µM (inactive)
CN(C)/N=N/c1nc2c(c(=O)n(C)c(=O)n2C)n1CC1CO1 (stereo not given) |  | 17.1 µM (inactive) | 13.9 µM (inactive) | 23.8 µM (inactive) |  | 13.6 µM (inactive) | 13.4 µM (inactive) | 16.9 µM (inactive) | 16.7 µM (inactive) | 19.9 µM (inactive) | 20.7 µM (inactive) | 20.7 µM (inactive) | 15.7 µM (inactive) | 19.9 µM (inactive) | 18.4 µM (inactive) | 11.9 µM (inactive) | 14.5 µM (inactive) | 5.38 µM (inactive) | 17.2 µM (inactive) | 11.7 µM (inactive)
CC(C)(C)OC(=O)[N+](=N)C(=O)C1CCC(=O)N1C(=O)OCc1ccccc1 (stereo not given) |  | > 100 µM (inactive) | > 100 µM (inactive) | > 100 µM (inactive) | > 100 µM (inactive) | > 100 µM (inactive) | > 100 µM (inactive) | > 100 µM (inactive) | 86.7 µM (inactive) | > 100 µM (inactive) | > 100 µM (inactive) | > 100 µM (inactive) | > 100 µM (inactive) | > 100 µM (inactive) | > 100 µM (inactive) | > 100 µM (inactive) | > 100 µM (inactive) | > 100 µM (inactive) | > 100 µM (inactive) | > 100 µM (inactive)
CC1=C(C(=O)OC(C)C)C(c2ccccc2C(F)(F)F)C(C(=O)OC(CO[N+](=O)[O-])CO[N+](=O)[O-])=C(C)N1 (stereo not given) |  | 5.11 µM (inactive) | 9.98 µM (inactive) | 2.72 µM (inactive) |  | 5.79 µM (inactive) | 5.14 µM (inactive) | 12.3 µM (inactive) | 6.28 µM (inactive) | 4.61 µM (inactive) | 2.56 µM (inactive) | 16.8 µM (inactive) | 4.09 µM (inactive) | 14.7 µM (inactive) | 3.83 µM (inactive) | 23.9 µM (inactive) | 1.95 µM (inactive) | 4.22 µM (inactive) | 11.2 µM (inactive) | 2.21 µM (inactive)
COC(=O)C1(CCCCl)CCCN1C(=O)OC(C)(C)C (stereo not given) |  | > 100 µM (inactive) | > 100 µM (inactive) | 37.5 µM (inactive) |  | > 100 µM (inactive) | > 100 µM (inactive) | > 100 µM (inactive) | > 100 µM (inactive) | > 100 µM (inactive) | > 100 µM (inactive) | > 100 µM (inactive) | > 100 µM (inactive) | > 100 µM (inactive) | > 100 µM (inactive) | > 100 µM (inactive) | > 100 µM (inactive) | > 100 µM (inactive) | > 100 µM (inactive) | > 100 µM (inactive)
